System: G-402
Experiment: cells
Assay type: functional, cell-based, Homo sapiens
Settings: Homo sapiens, G-402
Description: SANGER: Inhibition of human G-402 cell growth in a cell viability assay.

`Oc1ccc2ccccc2c1SSc1c(O)ccc2ccccc12` was tested. Which IC50 did it give?
Its IC50 is > 32 µM.

System: HuO-3N1;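 note: cell viability readout used to measure how strongly compounds suppress proliferation of human HuO-3N1 cells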
Experiment: cells
Assay type: functional, cell-based, Homo sapiens
Settings: Homo sapiens, HuO-3N1
Description: SANGER: Inhibition of human HuO-3N1 cell growth in a cell viability assay.

Which IC50 does the source give for `Oc1ccc2ccccc2c1SSc1c(O)ccc2ccccc12` here?
Its IC50 is > 32 µM.

System: SW1990
Experiment: cells
Assay type: functional, cell-based, Homo sapiens
Settings: Homo sapiens, SW1990
Description: SANGER: Inhibition of human SW1990 cell growth in a cell viability assay.

With `Oc1ccc2ccccc2c1SSc1c(O)ccc2ccccc12` as the compound, how does the IC50 read?
Its IC50 is > 32 µM.

System: MRK-nu-1;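 note: cell viability assay measuring growth suppression of human MRK-nu-1 cells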
Experiment: cells
Assay type: functional, cell-based, Homo sapiens
Settings: Homo sapiens, MRK-nu-1
Description: SANGER: Inhibition of human MRK-nu-1 cell growth in a cell viability assay.

Which IC50 does the source give for `Oc1ccc2ccccc2c1SSc1c(O)ccc2ccccc12` here?
Its IC50 is > 32 µM.

System: IM-9
Experiment: SANGER: Inhibition of human IM-9 cell growth in a cell viability assay.
Assay type: functional, cell-based
Settings: Homo sapiens, IM-9

For `Oc1ccc2ccccc2c1SSc1c(O)ccc2ccccc12`, which IC50 is on record?
Its IC50 is 7.93 µM.

System: NCI-H1882;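 note: growth inhibition of the cell line, determined with a viability assay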
Experiment: cells
Assay type: functional, cell-based, Homo sapiens
Settings: Homo sapiens, NCI-H1882
Description: SANGER: Inhibition of human NCI-H1882 cell growth in a cell viability assay.

How did the IC50 turn out when `Oc1ccc2ccccc2c1SSc1c(O)ccc2ccccc12` was run?
The IC50 was > 32 µM.

System: IST-SL2;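 note: growth inhibition of human IST-SL2 cells, read out by a cell viability assay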
Experiment: cells
Assay type: functional, cell-based, Homo sapiens
Settings: Homo sapiens, IST-SL2
Description: SANGER: Inhibition of human IST-SL2 cell growth in a cell viability assay.

For `Oc1ccc2ccccc2c1SSc1c(O)ccc2ccccc12`, which IC50 is on record?
Its IC50 is 20.7 µM.

System: HuP-T4;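 note: cell viability assay measuring how much HuP-T4 cell growth is inhibited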
Experiment: cells
Assay type: functional, cell-based, Homo sapiens
Settings: Homo sapiens, HuP-T4
Description: SANGER: Inhibition of human HuP-T4 cell growth in a cell viability assay.

With `Oc1ccc2ccccc2c1SSc1c(O)ccc2ccccc12` as the compound, how does the IC50 read?
The IC50 was > 32 µM.

System: SW1710;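 note: growth inhibition of SW1710 cells, determined with a cell viability assay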
Experiment: cells
Assay type: functional, cell-based, Homo sapiens
Settings: Homo sapiens, SW1710
Description: SANGER: Inhibition of human SW1710 cell growth in a cell viability assay.

Which IC50 does the source give for `Oc1ccc2ccccc2c1SSc1c(O)ccc2ccccc12` here?
Its IC50 is 1180 nM.

System: VM-CUB-1;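 note: cell viability assay measuring growth inhibition of the human VM-CUB-1 cell line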
Experiment: cells
Assay type: functional, cell-based, Homo sapiens
Settings: Homo sapiens, VM-CUB-1
Description: SANGER: Inhibition of human VM-CUB-1 cell growth in a cell viability assay.

With `Oc1ccc2ccccc2c1SSc1c(O)ccc2ccccc12` as the compound, how does the IC50 read?
The IC50 was > 32 µM.

System: RVH-421
Experiment: cells
Assay type: functional, cell-based, Homo sapiens
Settings: Homo sapiens, RVH-421
Description: SANGER: Inhibition of human RVH-421 cell growth in a cell viability assay.

How did the IC50 turn out when `Oc1ccc2ccccc2c1SSc1c(O)ccc2ccccc12` was run?
Its IC50 is > 32 µM.

System: HCC1569;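 note: growth inhibition of human HCC1569 cells, read out with a cell viability assay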
Experiment: cells
Assay type: functional, cell-based, Homo sapiens
Settings: Homo sapiens, HCC1569
Description: SANGER: Inhibition of human HCC1569 cell growth in a cell viability assay.

`Oc1ccc2ccccc2c1SSc1c(O)ccc2ccccc12` was tested. Which IC50 did it give?
Its IC50 is > 32 µM.

System: T47D;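 note: growth inhibition of human T47D cells, measured with a cell viability assay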
Experiment: cells
Assay type: functional, cell-based, Homo sapiens
Settings: Homo sapiens, T47D
Description: SANGER: Inhibition of human T47D cell growth in a cell viability assay.

`Oc1ccc2ccccc2c1SSc1c(O)ccc2ccccc12` was tested. Which IC50 did it give?
The IC50 was > 32 µM.

System: NCI-H2141;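 note: growth inhibition of human NCI-H2141 cells, read out with a cell viability assay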
Experiment: cells
Assay type: functional, cell-based, Homo sapiens
Settings: Homo sapiens, NCI-H2141
Description: SANGER: Inhibition of human NCI-H2141 cell growth in a cell viability assay.

Which IC50 does the source give for `Oc1ccc2ccccc2c1SSc1c(O)ccc2ccccc12` here?
The IC50 was > 32 µM.

System: CAL-54;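 note: growth inhibition of CAL-54 cells, read out by a viability measurement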
Experiment: cells
Assay type: functional, cell-based, Homo sapiens
Settings: Homo sapiens, CAL-54
Description: SANGER: Inhibition of human CAL-54 cell growth in a cell viability assay.

For `Oc1ccc2ccccc2c1SSc1c(O)ccc2ccccc12`, which IC50 is on record?
Its IC50 is > 32 µM.

System: P31-FUJ;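 note: growth inhibition of P31-FUJ cells, read out with a viability assay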
Experiment: cells
Assay type: functional, cell-based, Homo sapiens
Settings: Homo sapiens, P31-FUJ
Description: SANGER: Inhibition of human P31-FUJ cell growth in a cell viability assay.

With `Oc1ccc2ccccc2c1SSc1c(O)ccc2ccccc12` as the compound, how does the IC50 read?
Its IC50 is > 32 µM.

System: CAL-12T;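 note: growth inhibition of human CAL-12T cells, read out with a cell viability assay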
Experiment: cells
Assay type: functional, cell-based, Homo sapiens
Settings: Homo sapiens, CAL-12T
Description: SANGER: Inhibition of human CAL-12T cell growth in a cell viability assay.

`Oc1ccc2ccccc2c1SSc1c(O)ccc2ccccc12` was tested. Which IC50 did it give?
Its IC50 is 5.64 µM.

System: CA46;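 note: growth inhibition of human CA46 cells, read out by a cell viability assay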
Experiment: cells
Assay type: functional, cell-based, Homo sapiens
Settings: Homo sapiens, CA46
Description: SANGER: Inhibition of human CA46 cell growth in a cell viability assay.

For `Oc1ccc2ccccc2c1SSc1c(O)ccc2ccccc12`, which IC50 is on record?
Its IC50 is 3.66 µM.

System: KYSE-410;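 note: growth inhibition of KYSE-410 cells, measured through a cell viability readout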
Experiment: cells
Assay type: functional, cell-based, Homo sapiens
Settings: Homo sapiens, KYSE-410
Description: SANGER: Inhibition of human KYSE-410 cell growth in a cell viability assay.

How did the IC50 turn out when `Oc1ccc2ccccc2c1SSc1c(O)ccc2ccccc12` was run?
The IC50 was > 32 µM.

System: SNU-C1;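 note: growth inhibition of SNU-C1 human cells, read out by a cell viability assay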
Experiment: cells
Assay type: functional, cell-based, Homo sapiens
Settings: Homo sapiens, SNU-C1
Description: SANGER: Inhibition of human SNU-C1 cell growth in a cell viability assay.

How did the IC50 turn out when `Oc1ccc2ccccc2c1SSc1c(O)ccc2ccccc12` was run?
Its IC50 is > 32 µM.

System: Capan-2;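 note: Capan-2 cell growth inhibition, read out with a viability assay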
Experiment: cells
Assay type: functional, cell-based, Homo sapiens
Settings: Homo sapiens, Capan-2
Description: SANGER: Inhibition of human Capan-2 cell growth in a cell viability assay.

`Oc1ccc2ccccc2c1SSc1c(O)ccc2ccccc12` was tested. Which IC50 did it give?
The IC50 was > 32 µM.

System: MHH-CALL-2;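 note: growth inhibition of the cell line, read out in a cell viability assay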
Experiment: cells
Assay type: functional, cell-based, Homo sapiens
Settings: Homo sapiens, MHH-CALL-2
Description: SANGER: Inhibition of human MHH-CALL-2 cell growth in a cell viability assay.

For `Oc1ccc2ccccc2c1SSc1c(O)ccc2ccccc12`, which IC50 is on record?
Its IC50 is > 32 µM.

System: ESS-1;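 note: growth inhibition of human ESS-1 cells, read out by a cell viability assay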
Experiment: cells
Assay type: functional, cell-based, Homo sapiens
Settings: Homo sapiens, ESS-1
Description: SANGER: Inhibition of human ESS-1 cell growth in a cell viability assay.

With `Oc1ccc2ccccc2c1SSc1c(O)ccc2ccccc12` as the compound, how does the IC50 read?
Its IC50 is > 32 µM.

System: NCI-H1417;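 note: human NCI-H1417 cells, growth inhibition determined with a cell viability readout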
Experiment: cells
Assay type: functional, cell-based, Homo sapiens
Settings: Homo sapiens, NCI-H1417
Description: SANGER: Inhibition of human NCI-H1417 cell growth in a cell viability assay.

How did the IC50 turn out when `Oc1ccc2ccccc2c1SSc1c(O)ccc2ccccc12` was run?
The IC50 was > 32 µM.

System: 5637
Experiment: cells
Assay type: functional, cell-based, Homo sapiens
Settings: Homo sapiens
Description: SANGER: Inhibition of human 5637 cell growth in a cell viability assay.

With `Oc1ccc2ccccc2c1SSc1c(O)ccc2ccccc12` as the compound, how does the IC50 read?
Its IC50 is > 32 µM.

System: OVCAR-5;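 note: growth inhibition of human OVCAR-5 cells, read out with a cell viability assay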
Experiment: cells
Assay type: functional, cell-based, Homo sapiens
Settings: Homo sapiens, OVCAR-5
Description: SANGER: Inhibition of human OVCAR-5 cell growth in a cell viability assay.

With `Oc1ccc2ccccc2c1SSc1c(O)ccc2ccccc12` as the compound, how does the IC50 read?
The IC50 was > 32 µM.

System: NCI-H345;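 note: growth inhibition of NCI-H345 cells measured with a cell viability assay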
Experiment: cells
Assay type: functional, cell-based, Homo sapiens
Settings: Homo sapiens, NCI-H345
Description: SANGER: Inhibition of human NCI-H345 cell growth in a cell viability assay.

For `Oc1ccc2ccccc2c1SSc1c(O)ccc2ccccc12`, which IC50 is on record?
The IC50 was > 32 µM.

System: COLO-792
Experiment: cells
Assay type: functional, cell-based, Homo sapiens
Settings: Homo sapiens, COLO-792
Description: SANGER: Inhibition of human COLO-792 cell growth in a cell viability assay.

With `Oc1ccc2ccccc2c1SSc1c(O)ccc2ccccc12` as the compound, how does the IC50 read?
Its IC50 is > 32 µM.

System: HCC70;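 note: cell viability assay measuring how strongly the compound suppresses proliferation of HCC70 cells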
Experiment: cells
Assay type: functional, cell-based, Homo sapiens
Settings: Homo sapiens, HCC70
Description: SANGER: Inhibition of human HCC70 cell growth in a cell viability assay.

Which IC50 does the source give for `Oc1ccc2ccccc2c1SSc1c(O)ccc2ccccc12` here?
Its IC50 is > 32 µM.

System: MDA-MB-157
Experiment: cells
Assay type: functional, cell-based, Homo sapiens
Settings: Homo sapiens, MDA-MB-157
Description: SANGER: Inhibition of human MDA-MB-157 cell growth in a cell viability assay.

`Oc1ccc2ccccc2c1SSc1c(O)ccc2ccccc12` was tested. Which IC50 did it give?
The IC50 was > 32 µM.

System: EFO-27;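 note: growth inhibition of EFO-27 cells, read out with a cell viability assay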
Experiment: cells
Assay type: functional, cell-based, Homo sapiens
Settings: Homo sapiens, EFO-27
Description: SANGER: Inhibition of human EFO-27 cell growth in a cell viability assay.

With `Oc1ccc2ccccc2c1SSc1c(O)ccc2ccccc12` as the compound, how does the IC50 read?
Its IC50 is > 32 µM.

System: UO-31
Experiment: cells
Assay type: functional, cell-based, Homo sapiens
Settings: Homo sapiens, UO-31
Description: SANGER: Inhibition of human U031 cell growth in a cell viability assay.

How did the IC50 turn out when `Oc1ccc2ccccc2c1SSc1c(O)ccc2ccccc12` was run?
Its IC50 is > 32 µM.

System: SN12C;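 note: growth inhibition of human SN12C cells, measured by a cell viability assay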
Experiment: cells
Assay type: functional, cell-based, Homo sapiens
Settings: Homo sapiens, SN12C
Description: SANGER: Inhibition of human SN12C cell growth in a cell viability assay.

With `Oc1ccc2ccccc2c1SSc1c(O)ccc2ccccc12` as the compound, how does the IC50 read?
Its IC50 is > 32 µM.

System: T-24;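 note: growth inhibition of T-24 cells, read out with a cell viability assay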
Experiment: cells
Assay type: functional, cell-based, Homo sapiens
Settings: Homo sapiens, T-24
Description: SANGER: Inhibition of human T-24 cell growth in a cell viability assay.

Which IC50 does the source give for `Oc1ccc2ccccc2c1SSc1c(O)ccc2ccccc12` here?
The IC50 was > 32 µM.

System: LCLC-97TM1;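 note: cell viability assay measuring growth inhibition of human LCLC-97TM1 cells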
Experiment: cells
Assay type: functional, cell-based, Homo sapiens
Settings: Homo sapiens, LCLC-97TM1
Description: SANGER: Inhibition of human LCLC-97TM1 cell growth in a cell viability assay.

With `Oc1ccc2ccccc2c1SSc1c(O)ccc2ccccc12` as the compound, how does the IC50 read?
Its IC50 is > 32 µM.

System: IGROV-1;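 note: reduction of IGROV-1 cell growth, read out with a viability assay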
Experiment: cells
Assay type: functional, cell-based, Homo sapiens
Settings: Homo sapiens, IGROV-1
Description: SANGER: Inhibition of human IGROV-1 cell growth in a cell viability assay.

`Oc1ccc2ccccc2c1SSc1c(O)ccc2ccccc12` was tested. Which IC50 did it give?
Its IC50 is > 32 µM.

System: NCI-H889;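 note: cell growth inhibition of the cell line, read out with a viability assay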
Experiment: cells
Assay type: functional, cell-based, Homo sapiens
Settings: Homo sapiens, NCI-H889
Description: SANGER: Inhibition of human NCI-H889 cell growth in a cell viability assay.

How did the IC50 turn out when `Oc1ccc2ccccc2c1SSc1c(O)ccc2ccccc12` was run?
The IC50 was > 32 µM.

System: SW1463;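 note: growth inhibition of SW1463 cells, determined with a cell viability assay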
Experiment: cells
Assay type: functional, cell-based, Homo sapiens
Settings: Homo sapiens, SW1463
Description: SANGER: Inhibition of human SW1463 cell growth in a cell viability assay.

For `Oc1ccc2ccccc2c1SSc1c(O)ccc2ccccc12`, which IC50 is on record?
Its IC50 is > 32 µM.

System: SK-MES-1;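 note: growth inhibition of human SK-MES-1 cells, read out with a cell viability assay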
Experiment: cells
Assay type: functional, cell-based, Homo sapiens
Settings: Homo sapiens, SK-MES-1
Description: SANGER: Inhibition of human SK-MES-1 cell growth in a cell viability assay.

How did the IC50 turn out when `Oc1ccc2ccccc2c1SSc1c(O)ccc2ccccc12` was run?
The IC50 was 11.6 µM.

System: NCI-H520;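 note: growth inhibition of NCI-H520 cells, measured by a cell viability assay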
Experiment: cells
Assay type: functional, cell-based, Homo sapiens
Settings: Homo sapiens, NCI-H520
Description: SANGER: Inhibition of human NCI-H520 cell growth in a cell viability assay.

With `Oc1ccc2ccccc2c1SSc1c(O)ccc2ccccc12` as the compound, how does the IC50 read?
The IC50 was > 32 µM.

System: SW756;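 note: growth inhibition of human SW756 cells, read out with a cell viability assay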
Experiment: cells
Assay type: functional, cell-based, Homo sapiens
Settings: Homo sapiens, SW756
Description: SANGER: Inhibition of human SW756 cell growth in a cell viability assay.

For `Oc1ccc2ccccc2c1SSc1c(O)ccc2ccccc12`, which IC50 is on record?
The IC50 was > 32 µM.

System: GDM-1;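 note: cell viability readout used to measure growth inhibition of human GDM-1 cells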
Experiment: cells
Assay type: functional, cell-based, Homo sapiens
Settings: Homo sapiens, GDM-1
Description: SANGER: Inhibition of human GDM-1 cell growth in a cell viability assay.

For `Oc1ccc2ccccc2c1SSc1c(O)ccc2ccccc12`, which IC50 is on record?
The IC50 was > 32 µM.

System: PANC-03-27
Experiment: cells
Assay type: functional, cell-based, Homo sapiens
Settings: Homo sapiens, PANC-03-27
Description: SANGER: Inhibition of human PANC-03-27 cell growth in a cell viability assay.

With `Oc1ccc2ccccc2c1SSc1c(O)ccc2ccccc12` as the compound, how does the IC50 read?
Its IC50 is > 32 µM.

System: NCI-H28;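 note: growth inhibition of human NCI-H28 cells, read out as cell viability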
Experiment: cells
Assay type: functional, cell-based, Homo sapiens
Settings: Homo sapiens, NCI-H28
Description: SANGER: Inhibition of human NCI-H28 cell growth in a cell viability assay.

With `Oc1ccc2ccccc2c1SSc1c(O)ccc2ccccc12` as the compound, how does the IC50 read?
Its IC50 is > 32 µM.

Reference: ChEMBL document CHEMBL1201861, “Genomics of Drug Sensitity in Cancer screening data, Wellcome Trust Sanger Institute”
